Series [1] has as its target CDK2/E (Homo sapiens (Human), UniProt P24941). Kind of series: ADP-Glo Kinase Assay, CDK2/E. Format: biochemical. To be noted: 1 μM compound; for inhibition at 1 µM: read-out: CDK2/E % INH (1 μM). An outline of the steps:
(§1)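 Buffer was MOPS 5 mM (pH 7.5) with MgCl2, EDTA and DTT; ATP set at apparent Km per kinase. Compounds were diluted in assay buffer to 1000 nM. Kinase-generated ADP was converted to luciferase signal and normalised to percent inhibition.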
On the technique in general: ADP-Glo turns the ADP formed in a reaction into a luminescent signal.

Series [2] deals with HepG2 cells. Nature of the series: Growth inhibition, MTS assay, HepG2. Format: cell-based, Human. To be noted: MTS cell viability, read-out: HepG2 ED50; for pIC50: Homo sapiens. (Tetrazolium assays rely on reduction of a dye to a coloured formazan, in cell work by metabolically active cells.)
Series [3] addresses FLT3wt (Homo sapiens (Human), UniProt P36888). Kind of series: ADP-Glo Kinase Assay, Flt3 wt. Format: biochemical. The following applies: 1 μM compound; for inhibition at 1 µM: read-out: Flt3wt % INH (1 μM). The procedure, abridged:
as §1

Series [4] has as its system MV4-11 cells. Nature of the series: Growth inhibition, MTS assay, MV4-11. Format: cell-based, Human. The following applies: MTS cell viability, read-out: MV4-11 ED50; for pIC50: Homo sapiens.
For series [5], the target named is DYRK1 (Homo sapiens (Human), UniProt Q13627). Kind of series: ADP-Glo Kinase Assay, DYRK1. Format: biochemical. To be noted: 1 μM compound; for inhibition at 1 µM: read-out: DYRK1A % INH (1 μM). An outline of the steps:
as §1

Series [6] addresses Pim-1 (Homo sapiens (Human), UniProt P11309). Nature of the series: ADP-Glo Kinase Assay, Pim-1. Format: biochemical. To be noted: 1 μM compound; for inhibition at 1 µM: read-out: Pim-1 % INH (1 μM). The procedure, abridged:
as §1

Series [7] deals with Pim-2 (Homo sapiens (Human), UniProt Q9P1W9). Nature of the series: ADP-Glo Kinase Assay, Pim-2. Format: biochemical. To be noted: 1 μM compound; for inhibition at 1 µM: read-out: Pim-2 % INH (1 μM). The procedure, abridged:
as §1

Series [8] deals with Pim-3 (Homo sapiens (Human), UniProt Q86V86). Kind of series: ADP-Glo Kinase Assay, Pim-3. Format: biochemical. To be noted: 1 μM compound; for inhibition at 1 µM: read-out: Pim-3 % INH (1 μM). An outline of the steps: as §1
Series [9] addresses CYP3A4 (Homo sapiens (Human), UniProt P08684). Kind of series: Cytochrome P450 inhibition, fluorescence, CYP3A4. Format: in vitro ADME. To be noted: recombinant CYP3A4, fluorescence detection; read-out: CYP inhibition (CYP 3A4 screening, IC50 class). An outline of the steps:
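Recombinant human CYP3A4 was incubated at 37 °C for 30–45 min with a fluorogenic probe substrate near apparent Km and serially diluted compound, after ≥10 min preincubation with an NADPH-regenerating system. Fluorescence was read after stopping, with compound autofluorescence measured beforehand and no-inhibitor and pre-stopped blanks as controls.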

SMILES strings stand for the structures. pIC50: −log10 of the molar value. Counter-ions that a name gives are not always drawn. Like-named read-outs stand apart in the source and are kept apart here.

Pim-1, sequence (P11309 whole entry): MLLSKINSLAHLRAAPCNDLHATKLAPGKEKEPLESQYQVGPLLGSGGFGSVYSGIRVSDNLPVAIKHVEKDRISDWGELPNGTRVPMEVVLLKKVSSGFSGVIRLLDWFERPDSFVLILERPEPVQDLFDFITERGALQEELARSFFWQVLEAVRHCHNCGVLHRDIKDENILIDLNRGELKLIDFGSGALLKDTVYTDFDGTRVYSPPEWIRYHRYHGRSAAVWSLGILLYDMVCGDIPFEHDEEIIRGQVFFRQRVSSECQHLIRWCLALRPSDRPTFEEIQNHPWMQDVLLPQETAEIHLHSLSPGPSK
Pim-2, sequence (Q9P1W9 whole entry): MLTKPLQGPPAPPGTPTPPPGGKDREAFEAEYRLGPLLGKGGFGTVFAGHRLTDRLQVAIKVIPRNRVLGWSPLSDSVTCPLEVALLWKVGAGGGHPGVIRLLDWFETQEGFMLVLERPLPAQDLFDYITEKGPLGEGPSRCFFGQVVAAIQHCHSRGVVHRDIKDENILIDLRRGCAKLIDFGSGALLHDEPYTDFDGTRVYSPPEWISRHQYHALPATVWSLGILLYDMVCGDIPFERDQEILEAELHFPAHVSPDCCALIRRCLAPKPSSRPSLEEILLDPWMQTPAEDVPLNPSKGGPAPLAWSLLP
FLT3wt, sequence (P36888 27-993): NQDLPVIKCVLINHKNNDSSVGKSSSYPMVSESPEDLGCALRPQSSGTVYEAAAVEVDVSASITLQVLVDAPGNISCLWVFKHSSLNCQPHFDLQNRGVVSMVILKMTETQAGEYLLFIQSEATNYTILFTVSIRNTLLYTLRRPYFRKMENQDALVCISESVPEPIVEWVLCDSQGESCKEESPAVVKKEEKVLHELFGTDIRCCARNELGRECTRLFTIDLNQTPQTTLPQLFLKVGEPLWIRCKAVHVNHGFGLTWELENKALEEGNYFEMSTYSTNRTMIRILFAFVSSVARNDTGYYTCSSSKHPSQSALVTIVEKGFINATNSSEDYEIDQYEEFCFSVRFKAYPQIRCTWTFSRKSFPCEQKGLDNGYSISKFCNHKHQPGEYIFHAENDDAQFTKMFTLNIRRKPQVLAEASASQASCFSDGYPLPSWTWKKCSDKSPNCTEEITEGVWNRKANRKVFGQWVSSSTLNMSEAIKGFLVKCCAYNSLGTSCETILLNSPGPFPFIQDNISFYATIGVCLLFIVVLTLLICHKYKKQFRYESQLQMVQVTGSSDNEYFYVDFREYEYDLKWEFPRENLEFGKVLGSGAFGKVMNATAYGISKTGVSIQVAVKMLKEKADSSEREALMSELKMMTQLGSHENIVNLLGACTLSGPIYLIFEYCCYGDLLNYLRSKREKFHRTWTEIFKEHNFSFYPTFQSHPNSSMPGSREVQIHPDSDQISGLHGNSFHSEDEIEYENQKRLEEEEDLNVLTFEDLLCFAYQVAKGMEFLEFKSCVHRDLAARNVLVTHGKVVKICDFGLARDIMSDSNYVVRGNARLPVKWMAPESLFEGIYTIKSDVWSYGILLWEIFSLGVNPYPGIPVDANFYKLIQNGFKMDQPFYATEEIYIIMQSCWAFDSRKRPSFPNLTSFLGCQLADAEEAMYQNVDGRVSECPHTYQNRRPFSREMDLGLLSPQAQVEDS
CYP3A4, sequence (P08684 whole entry): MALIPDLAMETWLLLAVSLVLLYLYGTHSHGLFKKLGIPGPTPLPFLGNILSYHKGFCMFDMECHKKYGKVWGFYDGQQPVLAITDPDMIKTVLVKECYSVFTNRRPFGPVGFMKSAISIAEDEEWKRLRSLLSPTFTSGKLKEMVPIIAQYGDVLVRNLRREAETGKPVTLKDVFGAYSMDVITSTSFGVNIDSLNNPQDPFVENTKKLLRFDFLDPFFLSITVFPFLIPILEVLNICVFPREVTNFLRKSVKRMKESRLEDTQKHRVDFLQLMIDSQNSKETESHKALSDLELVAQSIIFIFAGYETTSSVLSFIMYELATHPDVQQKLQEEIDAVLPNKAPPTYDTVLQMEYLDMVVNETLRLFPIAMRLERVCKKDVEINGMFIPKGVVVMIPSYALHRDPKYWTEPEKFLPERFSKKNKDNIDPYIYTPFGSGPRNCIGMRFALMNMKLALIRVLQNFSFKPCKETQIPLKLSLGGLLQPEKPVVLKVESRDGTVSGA

With `CCn1c(N2CCNCC2)nc2c([N+](=O)[O-])c(Br)c(Br)cc21` [Example 1A, 5,6-dibromo-1-ethyl-4-nitro-2-(piperazin-1-yl)-1H-1,3-benzodiazole hydrochloride], the inhibition at 1 µM in [1] is under 5%; in series [3] it was 26%; in series [5] it was 66%; in series [6], 81%; in series [7], 22%; in series [8], 65%. Further, the pIC50 in [2] (HepG2, 72 hours) is 5.89; in series [4] (MV4-11, 72 hours) it was 6.30; in series [9], 5.00 to 5.48.

With `CC(C)n1c(N2CCNC[C@H]2C)nc2c([N+](=O)[O-])c(Br)c(Br)cc21` [Example 1AX], the IC50 in series [2] (72 hours) and in [4] (72 hours) was 100 nM in each case. Also, the “Flt3wt % INH (1 μM)” value in series [3] was 83%. In addition, in series [5], the “DYRK1A % INH (1 μM)” value is over 95%. Moreover, in [6], the “Pim-1 % INH (1 μM)” value was over 95%. The “Pim-2 % INH (1 μM)” value in series [7] was determined as 77%. In [8], the “Pim-3 % INH (1 μM)” value stood at 95%. For the same compound, in series [9], the pIC50 is 5.48 to 5.96.

As to `CC(C)n1c(N2CC[C@@H](N)C2)nc2c(C#N)c(Br)c(Br)cc21` [Example 1BI], the inhibition at 1 µM is 22% in [1]; 27% in series [3]; 79% in series [5]; over 95% in series [6]; 82% in series [7]; 95% in [8]. Also, the pIC50 was 5.82 in [2] (HepG2, 72 h); 6.22 in [4] (MV4-11, 72 h); 5.48 to 5.96 in series [9].

`CCCn1c(N2CCNCC2)nc2c([N+](=O)[O-])c(Br)c(Br)cc21` [Example 1M]: the “CDK2/E % INH (1 μM)” value in series [1] is on record as under 5%. Further, the IC50 came out at 1800 nM in [2] (72 hours) and 600 nM in [4] (72 hours). For the same compound, the “Flt3wt % INH (1 μM)” value in series [3] stood at 46%. Further, the “DYRK1A % INH (1 μM)” value in [5] is listed as over 95%. Also, the “Pim-1 % INH (1 μM)” value in series [6] is on record as over 95%. In addition, the “Pim-2 % INH (1 μM)” value in series [7] amounted to 44%. Further, the “Pim-3 % INH (1 μM)” value in series [8] came out at 73%. Besides, the pIC50 in series [9] was 5.48 to 5.96.

Turning to `CC(C)n1c(N2CCNCC2)nc2c([N+](=O)[O-])c(Br)c(Br)cc21` [Example 2A, 5,6-dibromo-4-nitro-2-(piperazin-1-yl)-1-(propan-2-yl)-1H-1,3-benzodiazole hydrochloride], the inhibition at 1 µM in [1] was 44%; in [3], 66%; in [5] it was over 95%; in series [6], over 95%; in [7], 49%; in series [8], 89%. The pIC50 in series [2] (HepG2, 72 h) was 6.22; in series [4] (MV4-11, 72 h), 6.52; in [9] it was 5.00 to 5.48.

Take `Cl.O=[N+]([O-])c1c(Br)c(Br)cc2c1nc(N1CCNCC1)n2C1CCCC1` [Example 2D, 5,6-dibromo-1-cyclopentyl-4-nitro-2-(piperazin-1-yl)-1H-1,3-benzodiazole hydrochloride]: the inhibition at 1 µM was 21% in [1]; 55% in series [3]; over 95% in series [5]; over 95% in [6]; 53% in series [7]; over 95% in [8]. The pIC50 is 6.15 in series [2] (HepG2, 72 h); 6.22 in series [4] (MV4-11, 72 h); 5.48 to 5.96 in [9].

On to `CC(C)n1c(C2CCNCC2)nc2c([N+](=O)[O-])c(Br)c(Br)cc21` [Example 26A, 5,6-dibromo-4-nitro-2-(piperidin-4-yl)-1-(propan-2-yl)-1H-1,3-benzodiazole], for which the inhibition at 1 µM in series [1] is 36%; in [3], 65%; in [5], over 95%; in series [6], over 95%; in series [7], 68%; in series [8], 90%. For the same compound, the pIC50 in [2] (HepG2, 72 h) was 6.22; in series [4] (MV4-11, 72 h), 6.70; in series [9], under 5.00.

The values above are taken from patent publication US10174013B2, “Benzimidazole derivatives as kinase inhibitors” (SELVITA S.A., priority 2012, dated 2019).
